Measurements: ChEMBL document CHEMBL5649166, “RIP3 induces apoptosis independent of pronecrotic kinase activity” (Mol Cell, 2014)
Active and inactive are the calls of the source. The rule behind the calls is not given here.

Key:
[1] = target: Maternal embryonic leucine zipper kinase (Homo sapiens) (UniProt Q14680); assay: Inhibition of human MELK using KKLNRTLSFAEPG as substrate at 1 uM in presence of 32P-ATP by Hotspot assay relative to control; values are per cent of control
[2] = target: T1, Inhibitor of nuclear factor kappa-B kinase subunit epsilon (Homo sapiens) (UniProt Q14164); assay: Inhibition of human IKKe/IKBKE using casein as substrate at 1 uM in presence of 32P-ATP by Hotspot assay relative to control; values are per cent of control
T1 sequence (whole entry): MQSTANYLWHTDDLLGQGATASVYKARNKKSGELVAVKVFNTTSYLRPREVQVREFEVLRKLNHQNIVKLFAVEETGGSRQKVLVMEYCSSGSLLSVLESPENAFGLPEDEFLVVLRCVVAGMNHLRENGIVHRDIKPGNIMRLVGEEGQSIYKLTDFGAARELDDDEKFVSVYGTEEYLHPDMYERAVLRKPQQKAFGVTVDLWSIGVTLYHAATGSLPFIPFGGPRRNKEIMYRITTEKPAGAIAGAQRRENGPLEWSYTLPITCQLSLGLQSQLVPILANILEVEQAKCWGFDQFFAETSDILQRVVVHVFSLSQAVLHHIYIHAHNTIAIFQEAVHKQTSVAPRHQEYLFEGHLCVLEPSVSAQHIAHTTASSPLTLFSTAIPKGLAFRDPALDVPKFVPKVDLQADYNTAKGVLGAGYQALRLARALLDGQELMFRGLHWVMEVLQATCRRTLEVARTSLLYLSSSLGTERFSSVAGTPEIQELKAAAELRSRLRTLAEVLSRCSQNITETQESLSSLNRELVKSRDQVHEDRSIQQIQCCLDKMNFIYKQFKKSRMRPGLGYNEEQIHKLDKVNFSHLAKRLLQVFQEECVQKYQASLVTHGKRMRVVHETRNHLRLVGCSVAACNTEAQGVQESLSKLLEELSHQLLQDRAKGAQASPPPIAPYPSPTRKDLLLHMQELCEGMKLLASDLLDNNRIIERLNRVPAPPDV

[3] = target: Vascular endothelial growth factor receptor 1 (Homo sapiens) (UniProt P17948); assay: Inhibition of human FLT1/VEGFR1 using poly[Glu:Tyr] (4:1) as substrate at 1 uM in presence of 32P-ATP by Hotspot assay relative to control; values are per cent of control
Sequence of Vascular endothelial growth factor receptor 1 (Homo sapiens) (P17948 whole entry): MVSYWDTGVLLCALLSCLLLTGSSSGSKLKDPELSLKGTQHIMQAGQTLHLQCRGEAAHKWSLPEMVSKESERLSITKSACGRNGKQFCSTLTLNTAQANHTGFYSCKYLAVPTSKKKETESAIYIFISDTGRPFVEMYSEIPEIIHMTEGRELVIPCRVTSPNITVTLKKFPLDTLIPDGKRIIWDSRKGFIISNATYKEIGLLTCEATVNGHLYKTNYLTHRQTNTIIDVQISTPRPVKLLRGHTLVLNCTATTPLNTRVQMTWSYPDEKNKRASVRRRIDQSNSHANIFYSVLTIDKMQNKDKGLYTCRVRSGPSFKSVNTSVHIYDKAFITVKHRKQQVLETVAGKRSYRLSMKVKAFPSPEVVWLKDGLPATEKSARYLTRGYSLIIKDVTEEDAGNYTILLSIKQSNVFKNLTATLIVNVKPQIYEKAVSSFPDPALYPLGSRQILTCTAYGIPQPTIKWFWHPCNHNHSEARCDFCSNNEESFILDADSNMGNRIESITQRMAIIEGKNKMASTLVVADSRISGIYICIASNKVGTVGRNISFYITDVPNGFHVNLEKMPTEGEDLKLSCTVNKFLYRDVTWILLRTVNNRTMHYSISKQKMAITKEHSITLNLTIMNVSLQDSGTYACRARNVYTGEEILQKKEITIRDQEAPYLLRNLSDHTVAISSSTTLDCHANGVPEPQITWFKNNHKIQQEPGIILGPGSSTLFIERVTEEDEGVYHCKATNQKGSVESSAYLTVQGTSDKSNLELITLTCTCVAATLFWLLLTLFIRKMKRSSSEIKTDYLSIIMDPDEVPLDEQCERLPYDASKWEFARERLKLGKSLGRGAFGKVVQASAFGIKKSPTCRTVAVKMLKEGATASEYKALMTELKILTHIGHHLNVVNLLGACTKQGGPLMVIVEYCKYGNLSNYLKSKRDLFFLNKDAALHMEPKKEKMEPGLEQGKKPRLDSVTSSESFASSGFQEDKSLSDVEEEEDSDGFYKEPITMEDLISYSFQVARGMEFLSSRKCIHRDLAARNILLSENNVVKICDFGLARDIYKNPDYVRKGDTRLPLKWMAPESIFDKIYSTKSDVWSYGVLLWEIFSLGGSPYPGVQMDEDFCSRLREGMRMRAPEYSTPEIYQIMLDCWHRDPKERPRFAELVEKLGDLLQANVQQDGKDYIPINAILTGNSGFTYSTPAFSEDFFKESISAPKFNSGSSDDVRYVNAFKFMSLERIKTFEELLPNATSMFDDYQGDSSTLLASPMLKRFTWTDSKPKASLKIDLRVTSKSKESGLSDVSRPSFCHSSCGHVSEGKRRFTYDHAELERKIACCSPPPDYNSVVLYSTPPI

[4] = target: RAF proto-oncogene serine/threonine-protein kinase (Homo sapiens) (UniProt P04049); assay: Inhibition of human RAF1 using MEK1 (K97R) as substrate at 1 uM in presence of 32P-ATP by Hotspot assay relative to control; values are per cent of control
Sequence of RAF proto-oncogene serine/threonine-protein kinase (Homo sapiens) (P04049 whole entry): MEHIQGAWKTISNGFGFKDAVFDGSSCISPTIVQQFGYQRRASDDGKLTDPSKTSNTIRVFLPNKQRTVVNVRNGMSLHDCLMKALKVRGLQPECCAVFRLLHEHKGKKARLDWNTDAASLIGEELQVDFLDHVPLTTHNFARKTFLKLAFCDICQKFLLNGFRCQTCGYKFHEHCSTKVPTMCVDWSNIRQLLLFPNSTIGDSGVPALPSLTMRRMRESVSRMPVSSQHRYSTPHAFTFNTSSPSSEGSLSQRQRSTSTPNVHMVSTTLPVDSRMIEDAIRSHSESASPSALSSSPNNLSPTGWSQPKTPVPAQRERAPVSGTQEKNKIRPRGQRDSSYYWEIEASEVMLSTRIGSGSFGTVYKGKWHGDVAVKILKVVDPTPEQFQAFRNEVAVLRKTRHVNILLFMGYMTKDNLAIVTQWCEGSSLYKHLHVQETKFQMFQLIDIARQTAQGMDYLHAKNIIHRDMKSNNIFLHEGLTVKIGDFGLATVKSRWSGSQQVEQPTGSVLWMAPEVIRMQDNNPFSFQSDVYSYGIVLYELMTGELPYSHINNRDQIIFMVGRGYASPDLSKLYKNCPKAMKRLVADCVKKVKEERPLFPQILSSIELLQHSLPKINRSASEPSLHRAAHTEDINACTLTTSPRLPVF

[5] = target: Serine/threonine-protein kinase Nek7 (Homo sapiens) (UniProt Q8TDX7); assay: Inhibition of human NEK7 using casein as substrate at 1 uM in presence of 32P-ATP by Hotspot assay relative to control; values are per cent of control
Sequence of Serine/threonine-protein kinase Nek7 (Homo sapiens) (Q8TDX7 whole entry, looked up): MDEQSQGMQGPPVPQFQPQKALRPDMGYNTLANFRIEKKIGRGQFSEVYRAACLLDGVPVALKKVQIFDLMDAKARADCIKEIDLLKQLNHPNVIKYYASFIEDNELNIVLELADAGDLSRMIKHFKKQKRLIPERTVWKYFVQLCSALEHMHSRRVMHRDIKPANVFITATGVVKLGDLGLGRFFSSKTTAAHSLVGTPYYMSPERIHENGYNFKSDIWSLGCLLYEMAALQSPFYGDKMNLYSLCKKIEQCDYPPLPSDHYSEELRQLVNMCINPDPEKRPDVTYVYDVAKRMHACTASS

Neutrophil = assay: Inhibition of TNF-alpha induced necroptosis in human neutrophil cells assessed as increase in cell viability incubated for 18 hrs in presence of zVAD and SMAC007 by Cell Titer-Glo luminescent cell viability assay; format: functional, cell-based
[6] = target: T2, Tyrosine-protein kinase receptor TYRO3 (Homo sapiens) (UniProt Q06418); assay: Inhibition of human TYRO3/SKY using poly[Glu:Tyr] (4:1) as substrate at 1 uM in presence of 32P-ATP by Hotspot assay relative to control; values are per cent of control
T2 sequence (whole entry): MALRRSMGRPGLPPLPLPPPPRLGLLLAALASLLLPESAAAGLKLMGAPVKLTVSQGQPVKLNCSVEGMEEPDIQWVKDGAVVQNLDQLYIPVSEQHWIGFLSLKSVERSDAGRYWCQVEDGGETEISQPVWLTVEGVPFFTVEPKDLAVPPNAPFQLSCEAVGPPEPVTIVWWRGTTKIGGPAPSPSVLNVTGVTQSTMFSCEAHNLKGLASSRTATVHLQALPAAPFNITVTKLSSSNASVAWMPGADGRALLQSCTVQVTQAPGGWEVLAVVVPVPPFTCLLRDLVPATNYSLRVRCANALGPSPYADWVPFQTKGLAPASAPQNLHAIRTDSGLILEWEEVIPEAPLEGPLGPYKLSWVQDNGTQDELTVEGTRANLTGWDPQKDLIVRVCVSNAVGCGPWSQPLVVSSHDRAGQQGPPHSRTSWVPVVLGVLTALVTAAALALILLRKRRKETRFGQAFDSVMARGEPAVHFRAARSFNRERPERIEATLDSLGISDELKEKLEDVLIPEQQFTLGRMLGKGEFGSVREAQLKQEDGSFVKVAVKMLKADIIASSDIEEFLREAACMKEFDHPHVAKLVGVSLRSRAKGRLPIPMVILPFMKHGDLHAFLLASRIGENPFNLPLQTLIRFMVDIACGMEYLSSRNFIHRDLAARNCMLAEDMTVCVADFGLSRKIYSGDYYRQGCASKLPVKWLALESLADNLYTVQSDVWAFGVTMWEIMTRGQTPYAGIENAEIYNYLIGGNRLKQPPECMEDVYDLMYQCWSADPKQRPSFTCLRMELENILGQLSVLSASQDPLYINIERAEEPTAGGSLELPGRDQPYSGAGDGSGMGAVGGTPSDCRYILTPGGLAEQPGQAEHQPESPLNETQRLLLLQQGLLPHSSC

[7] = target: Protein-tyrosine kinase 6 (Homo sapiens) (UniProt Q13882); assay: Inhibition of human BRK using poly[Glu:Tyr] (4:1) as substrate at 1 uM in presence of 32P-ATP by Hotspot assay relative to control; values are per cent of control
Sequence of Protein-tyrosine kinase 6 (Homo sapiens) (Q13882 whole entry, looked up): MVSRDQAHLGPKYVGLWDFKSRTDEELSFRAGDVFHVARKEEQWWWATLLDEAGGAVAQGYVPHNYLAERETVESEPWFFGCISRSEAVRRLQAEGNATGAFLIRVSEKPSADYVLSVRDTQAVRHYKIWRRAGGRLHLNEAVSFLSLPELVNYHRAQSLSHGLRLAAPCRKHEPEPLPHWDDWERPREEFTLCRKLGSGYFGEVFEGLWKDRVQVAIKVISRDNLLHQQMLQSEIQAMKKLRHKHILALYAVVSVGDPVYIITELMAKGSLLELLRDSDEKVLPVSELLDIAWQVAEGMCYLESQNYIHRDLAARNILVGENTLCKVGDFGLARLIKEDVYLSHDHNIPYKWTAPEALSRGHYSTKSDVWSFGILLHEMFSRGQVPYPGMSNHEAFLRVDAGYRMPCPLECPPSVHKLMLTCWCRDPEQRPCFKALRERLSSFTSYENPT

[8] = target: Misshapen-like kinase 1 (Homo sapiens) (UniProt Q8N4C8); assay: Residual activity of human MINK/MINK1 using myelin basic protein as substrate at 1 uM in presence of 32P-ATP by Hotspot assay relative to control
[9] = target: Ribosomal protein S6 kinase beta-2 (Homo sapiens) (UniProt Q9UBS0); assay: Inhibition of human p70S6Kb/RPS6KB2 using KKRNRTLTK as substrate at 1 uM in presence of 32P-ATP by Hotspot assay relative to control; values are per cent of control
Sequence of Ribosomal protein S6 kinase beta-2 (Homo sapiens) (Q9UBS0 whole entry): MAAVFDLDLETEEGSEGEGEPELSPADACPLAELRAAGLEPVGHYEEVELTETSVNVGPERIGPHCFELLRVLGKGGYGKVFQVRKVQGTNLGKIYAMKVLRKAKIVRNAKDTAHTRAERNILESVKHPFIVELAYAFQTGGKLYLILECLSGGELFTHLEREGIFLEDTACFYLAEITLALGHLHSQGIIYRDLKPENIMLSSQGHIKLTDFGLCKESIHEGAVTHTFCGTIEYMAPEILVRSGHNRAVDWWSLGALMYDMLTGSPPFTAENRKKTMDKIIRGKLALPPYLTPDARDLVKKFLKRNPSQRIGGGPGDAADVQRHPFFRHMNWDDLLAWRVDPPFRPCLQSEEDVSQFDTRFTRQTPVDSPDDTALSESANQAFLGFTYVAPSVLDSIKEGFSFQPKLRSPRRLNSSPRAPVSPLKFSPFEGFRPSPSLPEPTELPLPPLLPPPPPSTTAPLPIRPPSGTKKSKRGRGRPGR

[10] = target: Protein kinase C beta type (Homo sapiens) (UniProt P05771); assay: Inhibition of human PKCb2 using ERMRPRKRQGSVRRRV as substrate at 1 uM in presence of 32P-ATP by Hotspot assay relative to control; values are per cent of control
Sequence of Protein kinase C beta type (Homo sapiens) (P05771 2-671 limits assumed): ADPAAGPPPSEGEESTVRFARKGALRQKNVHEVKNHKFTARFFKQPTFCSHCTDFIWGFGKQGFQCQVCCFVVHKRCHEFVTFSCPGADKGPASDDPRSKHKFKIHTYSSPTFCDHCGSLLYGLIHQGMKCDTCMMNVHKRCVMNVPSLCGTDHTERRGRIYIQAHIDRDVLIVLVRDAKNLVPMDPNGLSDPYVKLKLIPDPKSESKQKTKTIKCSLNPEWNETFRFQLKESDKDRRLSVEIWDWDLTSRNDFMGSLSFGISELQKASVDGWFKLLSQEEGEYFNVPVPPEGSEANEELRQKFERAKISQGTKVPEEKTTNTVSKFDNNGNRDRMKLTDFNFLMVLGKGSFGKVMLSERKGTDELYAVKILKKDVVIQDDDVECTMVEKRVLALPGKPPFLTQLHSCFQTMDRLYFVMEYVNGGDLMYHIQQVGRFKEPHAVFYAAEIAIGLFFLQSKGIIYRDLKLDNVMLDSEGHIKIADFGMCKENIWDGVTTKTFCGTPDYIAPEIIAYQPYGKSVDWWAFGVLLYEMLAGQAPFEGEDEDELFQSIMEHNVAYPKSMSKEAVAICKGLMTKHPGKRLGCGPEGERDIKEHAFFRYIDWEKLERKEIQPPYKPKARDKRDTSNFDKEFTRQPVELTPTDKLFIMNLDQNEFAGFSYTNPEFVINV

Sequence of Maternal embryonic leucine zipper kinase (Homo sapiens) (Q14680 whole entry, looked up): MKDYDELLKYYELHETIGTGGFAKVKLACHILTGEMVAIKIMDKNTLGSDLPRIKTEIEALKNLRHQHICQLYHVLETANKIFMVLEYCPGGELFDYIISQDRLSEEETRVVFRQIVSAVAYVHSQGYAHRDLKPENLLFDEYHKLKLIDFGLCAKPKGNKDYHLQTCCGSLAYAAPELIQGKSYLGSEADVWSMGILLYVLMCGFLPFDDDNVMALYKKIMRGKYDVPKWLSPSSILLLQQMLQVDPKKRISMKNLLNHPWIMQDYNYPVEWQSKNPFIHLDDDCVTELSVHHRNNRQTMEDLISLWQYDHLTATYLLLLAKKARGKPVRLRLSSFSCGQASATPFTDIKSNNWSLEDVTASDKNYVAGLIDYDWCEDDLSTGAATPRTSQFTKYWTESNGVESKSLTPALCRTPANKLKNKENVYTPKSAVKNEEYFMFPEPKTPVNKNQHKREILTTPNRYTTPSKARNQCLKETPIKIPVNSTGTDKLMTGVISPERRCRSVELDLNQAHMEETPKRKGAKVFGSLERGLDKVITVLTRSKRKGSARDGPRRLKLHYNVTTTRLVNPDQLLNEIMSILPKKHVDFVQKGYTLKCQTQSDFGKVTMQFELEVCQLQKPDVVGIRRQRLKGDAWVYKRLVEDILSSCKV

Row | Compound | residual activity [1] [%] | residual activity [2] [%] | residual activity [3] [%] | residual activity [4] [%] | residual activity [5] [%] | inhibition (Neutrophil) | residual activity [6] [%] | residual activity [7] [%] | residual activity [8] [%] | residual activity [9] [%] | residual activity [10] [%]
1 | Cc1cc(-c2cnc(N)c3c(-c4ccc5scnc5c4)csc23)n(C)n1 | 88.2 | 97.9 | 96.8 | 50.5 | 94.9 | Active | 100 | 8.67 | 19.5 | 95.1 | 76.8
2 | CC(C)S(=O)(=O)c1ccc2nccc(Nc3ccc4scnc4c3)c2c1 | 96.5 | 97.7 | 85 | 54.1 | 95.6 | Active | 84.6 | 10.8 | 94.6 | 92.8 | 94.8
3 | CNC(=O)c1ccc2c(c1)ncn2-c1ccc(CC(=O)OC(C)(C)C)cc1 | 105 | 100 | 72.5 | 91.3 | 91.5 | Active | 99.3 | 29.9 | 91.8 | 92.3 | 94.7
